Here are results for five compounds from patent publication US20110098301A1, “Pyrimidine Derivatives for Treatment of Hyperproliferative Disorders” (BAYER HEALTHCARE LLC, priority 2005, published 2011).

The test system of this experiment is HCT116 cells. Kind of experiment: Cytotoxic activity: tumor cell proliferation assay (Alamar Blue). It counts as cell-based. The following applies: Homo sapiens, HCT-116, 72 h with compound, Alamar Blue readout.

Description: The following section describes an assay that can be used to characterize compounds of the invention, e.g., to test for the cytotoxic activity of compounds on cells.
Human tumor cells, e.g., HCT116 cells, are seeded in a 96-well plate at 3.0×10^3 cells/well and grown in 100 μl of RPMI complete media (Invitrogen Corporation, Grand Island, N.Y., USA) containing 10% fetal bovine serum (Hyclone, Logan, Utah, USA) and 10 mM HEPES and at 37° C. for 16 h in an incubator with 5% CO2. To each well, 50 μl of additional growth media containing 20 μM to 60 nM concentrations of compound with 0.2% DMSO is added. Cells are grown for another 72 h at 37° C. 20 μl of Alamar Blue (Trek Diagnostic Systems, Inc., Cleveland, Ohio, USA) reagent is added to each well and incubated for 4 h at 37° C. Plates are read in a SpectraMax Gemini (Molecular Devices, CA, USA) with 544 nm excitation and 590 nm emission wavelength. IC50 values are determined by linear regression analysis of log drug concentration versus percent inhibition.

With `Cc1cccc(C)c1-c1cc(Nc2ccc(Oc3ccnc(C(F)(F)F)c3)cc2)nc(N)n1` [Example 335, 6-(2,6-dimethylphenyl)-N^4-(4-{[2-(trifluoromethyl)pyridin-4-yl]oxy}phenyl)pyrimidine-2,4-diamine], the IC50 was determined as 62 nM.

As for `Cc1cc(Oc2ccc(Nc3cc(-c4ccc(N)nc4)nc(N)n3)cc2)ccn1` [Example 336, 6-(6-aminopyridin-3-yl)-N^4-{4-[(2-methylpyridin-4-yl)oxy]phenyl}pyrimidine-2,4-diamine], the IC50 came out at 6 nM.

On to `Nc1nc(Nc2ccc(Oc3ccnc(C(F)(F)F)c3)cc2)cc(-c2cncnc2)n1` [Example 337, N^6-(4-{[2-(trifluoromethyl)pyridin-4-yl]oxy}phenyl)-4,5′-bipyrimidine-2,6-diamine], for which the IC50 was 135 nM.

For `Nc1nc(Nc2ccc(Oc3ccnc(C(F)(F)F)n3)cc2)cc(-c2ccccc2)n1` [Example 338, 6-phenyl-N^4-(4-{[2-(trifluoromethyl)pyrimidin-4-yl]oxy}phenyl)pyrimidine-2,4-diamine], the IC50 stood at 17 nM.

With `Nc1ccc(-c2cc(Nc3ccc(Oc4ccnc(C(F)(F)F)n4)cc3)nc(N)n2)cn1` [Example 339, 6-(6-aminopyridin-3-yl)-N^4-(4-{[2-(trifluoromethyl)pyrimidin-4-yl]oxy}phenyl)pyrimidine-2,4-diamine], the IC50 came to 3 nM.
